# Measurements as given in patent US20100069441A1, “ANTIMICROBIAL INDOLINE COMPOUNDS FOR TREATMENT OF BACTERIAL INFECTIONS” (priority 2008, published 2010).
# Where two headings read alike, the source gives them in different places.
# Columns and labels:
# S. aureus = assay: In vivo antibacterial efficacy (ED50) in mice infected intraperitoneally; settings: Staphylococcus aureus, po
# Experimental: Determination of in vivo efficacy was performed by inoculating mice intraperitoneally with cultures of infecting organism using Linezolid as control. The compound was dissolved in DMSO with 20% cyclodextrin, diluted with deionized water, and administered orally (p.o.). The mice were dosed 1 hours after infection. Mortality was recorded after 72 hours. The 50% effective dose (ED50, mg/kg) was calculated at the end of the test.
# [1] = test system: methicillin-resistant Staphylococcus aureus (MRSA; from the Massachusetts General Hospital, USA); assay: Antibacterial activity (MIC) against MRSA clinical isolate; assay type: cell-based; settings: clinical isolate of MRSA, agar dilution
# Excerpt: Compounds of this invention can have useful activity against a variety of pathogenic microorganisms. The in vitro activity of compounds of this invention can be assessed by standard testing procedures such as the determination of minimum inhibitory concentration (MIC) by agar dilution as described in “Approved Standard. Methods for Dilution Antimicrobial Susceptibility Tests for Bacteria That Grow Aerobically”, 3rd. ed., published 1993 by the National Committee for Clinical Laboratory Standards, Villanova, Pennsylvania, USA. Minimum inhibitory concentration (MIC) refers to the lowest concentration of drug (μg/mL) that inhibits visible growth of the organism. Lower MIC values indicate a higher antibacterial activity. […] The useful activity of compounds of the present invention against a clinical isolate of methicillin-resistant Staphylococcus aureus (MRSA; from the Massachusetts General Hospital, USA) is illustrated by the MIC data of Table 1.
# [2] = test system: human CD34+ bone marrow cells; assay: Bone marrow CD34+ cell growth inhibition (myelosuppressive potential), luminescence assay; assay type: cell-based; settings: normalized IC50 ratio over reference compound of Example 18; incubation 9-10 days; higher ratio = reduced myelosuppression
# Experimental: Myelosuppressive potential (hematopoietic or bone marrow toxicity) was evaluated using human CD34^+ bone marrow cells, generally following methods described by Leach in International Patent Publication No. WO 2006/097828. Thus, an oxazolidinone compound was incubated with fresh human bone marrow cells for 9-10 days at 37° C. in 5% CO2 atmosphere. At end of the incubation period, the bone marrow toxicity was accessed by measuring inhibition (IC50, μg/mL) of CD34^+ cell growth using a luminescence assay. Lower IC50 value indicates a higher myelosuppression potential with enhanced probability of undesired adverse effects in vivo, while a higher IC50 value indicates reduced bone marrow toxicity. For comparison, the data are represented as normalized IC50 ratio indicating the fold of improvement over the reference compound of Example 18, based on IC50 for each compound in the CD34 assay.
# [3] = biological target: T1, Human monoamine oxidase (MOA) A type enzyme (Homo sapiens, UniProt P21397); assay: Monoamine oxidase A inhibition (MAO-Glo assay); assay type: biochemical; settings: MAO-Glo kit
# T1 construct: purchased BD Gentest
# T1 sequence (P21397 1-527): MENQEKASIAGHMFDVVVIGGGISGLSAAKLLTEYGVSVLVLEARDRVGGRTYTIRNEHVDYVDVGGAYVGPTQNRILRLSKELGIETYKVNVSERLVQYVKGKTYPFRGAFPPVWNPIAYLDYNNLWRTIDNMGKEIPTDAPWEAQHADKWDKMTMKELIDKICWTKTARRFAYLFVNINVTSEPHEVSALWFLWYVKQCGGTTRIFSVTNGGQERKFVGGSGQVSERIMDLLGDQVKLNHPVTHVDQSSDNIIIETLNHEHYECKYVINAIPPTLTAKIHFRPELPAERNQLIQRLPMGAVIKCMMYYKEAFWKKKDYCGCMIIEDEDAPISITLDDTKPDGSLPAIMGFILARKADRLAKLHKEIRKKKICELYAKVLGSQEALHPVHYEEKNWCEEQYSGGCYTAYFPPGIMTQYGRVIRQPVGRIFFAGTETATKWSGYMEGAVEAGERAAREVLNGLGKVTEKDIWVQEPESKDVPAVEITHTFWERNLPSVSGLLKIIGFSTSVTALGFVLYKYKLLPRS
# Experimental: Human monoamine oxidase (MOA) A type enzyme inhibition activity for select compounds was measured using a commercial MAO assay kit MAO-Glo™ from Promega Co. (USA). The assay was performed as described in the company's technical bulletin “MAO-Glo™ Assay”. The protocol involves an incubation of the MAO A enzyme (BD Gentest™) with a luminogenic MAO substrate to produce an enzymatic product which is converted to luciferin by a coupled reaction. The released luciferin undergoes further transformation to generate light that is detected and measured. The amount of the light is directly proportional to the activity of MAO. Percent inhibition at several concentrations is established relative to the uninhibited control rate, and the IC50 (μg/mL) values are calculated. […] The MAO inhibition data for select compound of this invention are illustrated in the Table 3 below.
# [4] = mice, p.o., dosed 1 hour after infection, mortality recorded after 72 hours, read-out: ED50
SMILES,ED50 (S. aureus; [4]),MIC [1],CD34 IC50 RATIO [2],IC50 [3],ED50 (S. aureus)
Cn1nnc(-c2ccc(-c3ccc4c(c3)C[C@H]3[C@H](CO)OC(=O)N43)cn2)n1 [Example 1],4.2 mg/kg,0.5 µg/mL,4.6,,
Cn1cc(-c2ccc(-c3ccc4c(c3)C[C@H]3[C@H](CO)OC(=O)N43)cn2)nn1 [Example 26],,1 µg/mL,11.4,,
CC(=O)NC[C@@H]1OC(=O)N2c3ccc(-c4ccc(-n5cc(C)nc5C)nc4)cc3C[C@H]12 [Example 15],,4 µg/mL,,,
CC(=O)NC[C@@H]1OC(=O)N2c3ccc(-c4ccc(-n5cncn5)nc4)cc3C[C@H]12 [Example 16],,0.5 µg/mL,,43 µM,
Cc1nnc(-c2ccc(-c3ccc4c(c3)C[C@H]3[C@H](CO)OC(=O)N43)cn2)o1 [Example 23],5.3 mg/kg,0.25 µg/mL,2.5,,
CC(=O)NC[C@@H]1OC(=O)N2c3ccc(-c4ccc(-c5cc(CO)on5)nc4)cc3C[C@H]12 [Example 17],,1 µg/mL,4.5,,
COC(=O)NC[C@@H]1OC(=O)N2c3ccc(-c4ccc(-c5nnn(C)n5)nc4)cc3C[C@@H]12 [Example 7],,1 µg/mL,,> 237 µM,
N#CCc1cn(-c2ccc(-c3ccc4c(c3)C[C@H]3[C@H](CO)OC(=O)N43)cn2)nn1 [Example 24],9.8 mg/kg,0.25 µg/mL,1.6,,
O=C1OCCN1c1ccc(-c2ccc3c(c2)C[C@H]2[C@H](CO)OC(=O)N32)cn1 [Example 28],,0.25 µg/mL,2.3,,
Cn1nnc(-c2ccc(-c3ccc4c(c3)C[C@H]3[C@H](COP(=O)([O-])[O-])OC(=O)N43)cn2)n1.[Na+].[Na+] [Example 5],5.6 mg/kg,,,,
Cn1nnnc1-c1ccc(-c2ccc3c(c2)C[C@H]2[C@H](CO)OC(=O)N32)cn1 [Example 2],6.1 mg/kg,0.5 µg/mL,3.3,,
O=C1O[C@@H](CO)[C@@H]2Cc3cc(-c4ccc(-n5cc(CF)nn5)nc4)ccc3N12 [Example 27],,0.25 µg/mL,1.6,,
Cn1ncc(-c2ccc(-c3ccc4c(c3)C[C@H]3[C@H](CO)OC(=O)N43)cn2)n1 [Example 22],,,8.3,,
CC(=O)NC[C@@H]1OC(=O)N2c3ccc(-c4ccc(-n5cc(C(C)(C)O)nn5)nc4)cc3C[C@@H]12 [Example 12],,1 µg/mL,2.5,,
Cc1cnnn1-c1ccc(-c2ccc3c(c2)C[C@H]2[C@H](CO)OC(=O)N32)cn1 [Example 20],,,14.8,,
CC(=O)NC[C@@H]1OC(=O)N2c3ccc(-c4ccc(-n5cc(CO)nn5)nc4)cc3C[C@H]12 [Example 13],,1 µg/mL,2.5,> 238 µM,
Cn1nncc1-c1ccc(-c2ccc3c(c2)C[C@H]2[C@H](COP(=O)([O-])[O-])OC(=O)N32)cn1.[Na+].[Na+] [Example 33],,,,,9.1 mg/kg
Cn1nncc1-c1ccc(-c2ccc3c(c2)C[C@H]2[C@H](CO)OC(=O)N32)cn1 [Example 25],9.6 mg/kg,0.25 µg/mL,4.9,,
Cc1cn(-c2ccc(-c3ccc4c(c3)C[C@H]3[C@H](CO)OC(=O)N43)cn2)nn1 [Example 30],,0.25 µg/mL,4.1,,
N#CCc1cn(-c2ccc(-c3ccc4c(c3)C[C@H]3[C@H](COP(=O)([O-])[O-])OC(=O)N43)cn2)nn1.[Na+].[Na+] [Example 39],10 mg/kg,,,,
Cc1nnc(-c2ccc(-c3ccc4c(c3)C[C@H]3[C@H](COP(=O)([O-])[O-])OC(=O)N43)cn2)o1.[Na+].[Na+] [Example 32],,,,,10 mg/kg
O=C1O[C@@H](CO)[C@@H]2Cc3cc(-c4ccc(-n5cnnn5)nc4)ccc3N12 [Example 3],3.3 mg/kg,0.25 µg/mL,,,
"CC(=O)NC[C@H]1CN(c2ccc(N3CCOCC3)c(F)c2)C(=O)O1 [Linezolid, linezolid, reference compound]",,2 µg/mL,,12.2 µM,
N#CCn1nnc(-c2ccc(-c3ccc4c(c3)C[C@H]3[C@H](CO)OC(=O)N43)cn2)n1 [Example 21],9.5 mg/kg,0.25 µg/mL,2.3,,
CC(=O)NC[C@@H]1OC(=O)N2c3ccc(-c4ccc(-c5noc(C)n5)nc4)cc3C[C@@H]12 [Example 14],,1 µg/mL,2.0,> 247 µM,
Cc1nnn(-c2ccc(-c3ccc4c(c3)C[C@H]3[C@H](CO)OC(=O)N43)cn2)c1C [Example 29],,1 µg/mL,15.5,,
"CC(=O)NC[C@@H]1OC(=O)N2c3ccc(-c4cccnc4)cc3C[C@H]12 [Example 18, reference compound]",,,1,,
